Where two headings read alike, the source gives them in different places.
Biological target: T1, human CGT (Homo sapiens, UniProt Q16880)
T1 sequence (Q16880 21-541): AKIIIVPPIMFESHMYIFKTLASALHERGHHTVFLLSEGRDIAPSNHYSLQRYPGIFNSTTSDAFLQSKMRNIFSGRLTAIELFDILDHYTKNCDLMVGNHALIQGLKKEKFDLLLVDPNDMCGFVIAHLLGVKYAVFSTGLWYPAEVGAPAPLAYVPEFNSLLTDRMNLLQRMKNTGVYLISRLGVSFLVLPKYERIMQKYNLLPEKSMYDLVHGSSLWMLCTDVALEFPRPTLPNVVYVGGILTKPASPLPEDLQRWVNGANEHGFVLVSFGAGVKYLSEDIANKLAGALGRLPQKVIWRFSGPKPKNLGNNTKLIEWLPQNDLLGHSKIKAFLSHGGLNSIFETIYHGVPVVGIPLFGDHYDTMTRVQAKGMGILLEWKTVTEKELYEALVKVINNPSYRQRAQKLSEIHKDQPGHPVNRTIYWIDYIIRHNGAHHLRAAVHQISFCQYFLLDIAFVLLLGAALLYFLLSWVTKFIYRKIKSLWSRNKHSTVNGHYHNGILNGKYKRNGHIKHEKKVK
Experiment: Assay 1: CGT Enzymatic Assay (RapidFire/MS/MS, 0.01% Tween 80)
Format: biochemical
Conditions: Table 1, Compounds of Formula (I) and Formula (II), CGT enzymatic assay, read-out: IC50

[1] = C6-NBD-dihydro-galactosylceramide readout

| IC50 [µM] | IC50 [1] [µM] | Compound |
| --- | --- | --- |
| < 1 |  | CC[C@@H]1N(c2ccc(Cl)cc2)C(=O)N(c2ccc(Cl)cc2)C1(O)c1cccc(C(F)(F)F)c1 (stereo partly drawn) [Compound 80-1, (5S)-1,3-bis(4-chlorophenyl)-5-ethyl-4-hydroxy-4-(3-(trifluoromethyl)phenyl)imidazolidin-2-one] |
| < 1 |  | C[C@@]1(c2cccc(C(F)(F)F)c2)C(O)N(c2ccc(Cl)cc2)C(=O)N1c1ccc(Cl)cc1 (stereo partly drawn) [Example 190-2, (4R)-1,3-bis(4-chlorophenyl)-5-hydroxy-4-methyl-4-(3-(trifluoromethyl)phenyl)imidazolidin-2-one] |
| < 1 |  | CCC[C@@H]1N(c2ccc(Br)cc2)C(=O)N(c2ccc(Br)cc2)C1(O)c1cccc(C)c1 (stereo partly drawn) [Compound 96-1, (5S)-1,3-bis(4-bromophenyl)-4-hydroxy-5-propyl-4-(m-tolyl)imidazolidin-2-one] |
|  | 1 to 10 | COC[C@]1(C)N(c2ccc(Cl)cc2)C(=O)N(c2ccc(Cl)cc2)[C@@]1(O)c1cccc(OC(F)(F)F)c1 [Compound 296-3, (4R,5S)-1,3-bis(4-chlorophenyl)-4-hydroxy-5-(methoxymethyl)-5-methyl-4-(3-(trifluoromethoxy)phenyl)imidazolidin-2-one] |
| < 1 |  | CCC[C@H]1N(c2ccc(Cl)cc2)C(=O)N(c2ccc(Cl)cc2)C1(O)c1cccc(Cl)c1 (stereo partly drawn) [Compound 114-2, (5R)-4-(3-chlorophenyl)-1,3-bis(4-chlorophenyl)-4-hydroxy-5-propylimidazolidin-2-one] |
| 10 to 50 |  | CCC[C@@]1(C)N(c2ccc(Cl)cc2)C(=O)N(c2ccc(Cl)cc2)C1(O)c1cccc(OC(F)(F)F)c1 (single isomer, unassigned) [Example 170-1] |
| < 1 |  | CCC[C@@H]1N(c2ccc(Cl)cc2)C(=O)N(c2ccc(Cl)cc2)C1(O)c1cccc(C(F)(F)F)c1 (single isomer, unassigned) [Compound 87-1] |
| < 1 |  | N#Cc1cccc(C2(O)[C@@H](C3CCC3)N(c3ccc(Cl)cc3)C(=O)N2c2ccc(Cl)cc2)c1 (stereo partly drawn) [Example 194-2, 3-((5R)-1,3-bis(4-chlorophenyl)-5-cyclobutyl-4-hydroxy-2-oxoimidazolidin-4-yl)benzonitrile] |
| 1 to 10 |  | O=C1N(c2ccc(Cl)cc2)[C@@H]([C@@H]2CCCO2)C(O)(c2cccc(Cl)c2)N1c1ccc(Cl)cc1 (single isomer, unassigned) [Compound 117-1] |
| < 1 |  | C[C@H]1N(c2ccc(Cl)cc2)C(=O)N(c2ccc(Cl)cc2)C1(O)c1cccc(OC(F)(F)F)c1 (stereo partly drawn) [Compound 129-2, (5R)-1,3-bis(4-chlorophenyl)-4-hydroxy-5-methyl-4-(3-(trifluoromethoxy)phenyl)imidazolidin-2-one] |
| 1 to 10 |  | O=C1N(c2ccc(Br)cc2)[C@H](c2ccccc2)C(O)(c2ccccc2)N1c1ccc(Br)cc1 (stereo partly drawn) [Compound 86-2, (5R)-1,3-bis(4-bromophenyl)-4-hydroxy-4,5-diphenylimidazolidin-2-one] |
| < 1 |  | CC(=O)c1cccc(C2(O)[C@@H](C)N(c3ccc(Cl)cc3)C(=O)N2c2ccc(Cl)cc2)c1 (stereo partly drawn) [Compound 136-2, (5R)-4-(3-acetylphenyl)-1,3-bis(4-chlorophenyl)-4-hydroxy-5-methylimidazolidin-2-one] |
|  | < 1 | C[C@]1(C(F)(F)F)N(c2ccc(Cl)cc2)C(=O)N(c2ccc(Cl)cc2)C1(O)c1cc(C#N)cc(C#N)c1 (stereo partly drawn) [Example 331-1, 5-((5S)-1,3-bis(4-chlorophenyl)-4-hydroxy-5-methyl-2-oxo-5-(trifluoromethyl)imidazolidin-4-yl)isophthalonitrile] |

Further lines, the compound ahead of its results:

| Compound | IC50 [µM] | IC50 [1] [µM] |
| --- | --- | --- |
| CC(C)c1c(-c2cccc(OC(F)(F)F)c2)n(-c2ccc(Cl)cc2)c(=O)n1-c1ccc(Cl)cc1 [Example 50] | < 1 |  |
| Cc1csc(C2(O)C(C)N(c3ccc(Br)cc3)C(=O)N2c2ccc(Br)cc2)c1 (stereo not shown) [Compound 97, 1,3-bis(4-bromophenyl)-4-hydroxy-5-methyl-4-(4-methylthiophen-2-yl)imidazolidin-2-one] | 1 to 10 |  |
| Cc1c(-c2ccccc2)n(-c2ccc(Br)cc2)c(=O)n1-c1ccc(Br)cc1 [Compound 257, 1,3-bis(4-bromophenyl)-4-methyl-5-phenyl-1,3-dihydro-2H-imidazol-2-one] | < 1 |  |
| CC1(C(F)(F)F)N(c2ccc(Cl)cc2)C(=O)N(c2ccc(Cl)cc2)C1(O)c1cc(C#N)cc(C#N)c1 (racemic) [Example 331, 5-((5S)-1,3-bis(4-chlorophenyl)-4-hydroxy-5-methyl-2-oxo-5-(trifluoromethyl)imidazolidin-4-yl)isophthalonitrile and 5-((5R)-1,3-bis(4-chlorophenyl)-4-hydroxy-5-methyl-2-oxo-5-(trifluoromethyl)imidazolidin-4-yl)isophthalonitrile] |  | < 1 |
| Cc1cccc(C2(O)[C@H](C)N(c3ccc(Br)cc3)C(=O)N2c2ccc(Br)cc2)c1 (stereo partly shown) [Example 29-1] | < 1 |  |
| Cc1ccc(N2C(=O)N(c3ccc(C)cc3)C(O)(c3cccc(OC(F)F)c3)C23COC3)cc1 (stereo not shown) [Compound 290, 8-(3-(difluoromethoxy)phenyl)-8-hydroxy-5,7-di-p-tolyl-2-oxa-5,7-diazaspiro[3.4]octan-6-one] |  | < 1 |
| Cc1ccc(N2C(=O)N(c3ccc(C)cc3)C(O)(c3cccc(OC(F)(F)F)c3)C2(C)C)cc1 (stereo not shown) [Example 176, 4-hydroxy-5,5-dimethyl-1,3-di-p-tolyl-4-(3-(trifluoromethoxy)phenyl)-imidazolidin-2-one] | < 1 |  |
| CCc1cccc(C2(O)C(C)N(c3ccc(Cl)cc3)C(=O)N2c2ccc(Cl)cc2)c1 (stereo not shown) [Compound 69, 1,3-bis(4-chlorophenyl)-4-(3-ethylphenyl)-4-hydroxy-5-methylimidazolidin-2-one] | < 1 |  |
| O=C1N(c2ccc(C(F)(F)F)cc2)C2(COC2)C(O)(c2cccc(OC(F)(F)F)c2)N1c1ccc(C(F)(F)F)cc1 (stereo not shown) [Compound 302, 8-hydroxy-8-(3-(trifluoromethoxy)phenyl)-5,7-bis(4-(trifluoromethyl)phenyl)-2-oxa-5,7-diazaspiro[3.4]octan-6-one] |  | < 1 |
| O=C1N(c2ccc(Br)cc2)CC(O)(c2ccccc2)N1c1ccc(Br)cc1 (stereo not shown) [Example 1] | 1 to 10 |  |
| CC[C@@H]1N(c2ccc(Cl)cc2)C(=O)N(c2ccc(Cl)cc2)C1(O)c1cccc(C)c1 (stereo partly drawn) [Compound 75-1, (5S)-1,3-bis(4-chlorophenyl)-5-ethyl-4-hydroxy-4-(m-tolyl)imidazolidin-2-one] | < 1 |  |
| O=C1N(c2ccc(Br)cc2)C(=O)C(O)(c2ccc(Cl)s2)N1c1ccc(Br)cc1 (stereo not shown) [Example 197, 1,3-bis(4-bromophenyl)-5-(5-chlorothiophen-2-yl)-5-hydroxyimidazolidine-2,4-dione] | 10 to 50 |  |
| Cc1csc(-c2c(C)n(-c3ccc(Br)cc3)c(=O)n2-c2ccc(Br)cc2)c1 [Compound 266, 1,3-bis(4-bromophenyl)-4-methyl-5-(4-methylthiophen-2-yl)-1,3-dihydro-2H-imidazol-2-one] | 1 to 10 |  |
| O=C1N(c2ccc(Br)cc2)C(=O)C(O)(c2ccc(OCC3CCCC3)cc2)N1c1ccc(Br)cc1 (stereo not shown) [Example 183, 1,3-bis(4-bromophenyl)-5-(4-(cyclopentylmethoxy)phenyl)-5-hydroxyimidazolidine-2,4-dione] | > 50 |  |
| O=C1N(c2ccc(Cl)cc2)C(C2CC2)C(O)(c2cccc(OC(F)F)c2)N1c1ccc(Cl)cc1 (stereo not shown) [Compound 233, 1,3-bis(4-chlorophenyl)-5-cyclopropyl-4-(3-(difluoromethoxy)phenyl)-4-hydroxyimidazolidin-2-one] | < 1 |  |
| Cc1cc(C)cc(C2(O)[C@H](C)N(c3ccc(Br)cc3)C(=O)N2c2ccc(Br)cc2)c1 (stereo partly shown) [Example 42-1] | < 1 |  |
| O=C1N(c2ccc(Br)cc2)C(=O)C(O)(c2ccc(N3CCCCC3)cc2)N1c1ccc(Br)cc1 (stereo not shown) [Example 173, 1,3-bis(4-bromophenyl)-5-hydroxy-5-(4-(piperidin-1-yl)phenyl)imidazolidine-2,4-dione] | > 50 |  |
| CC1N(c2ccc(Cl)cc2)C(=O)N(c2ccc(Cl)cc2)C1(O)c1cccc(Cl)c1 (stereo not shown) [Compound 62, 4-(3-chlorophenyl)-1,3-bis(4-chlorophenyl)-4-hydroxy-5-methylimidazolidin-2-one] | < 1 |  |
| N#Cc1cccc(C2(O)N(c3ccc(Cl)cc3)C(=O)N(c3ccc(Cl)cc3)C23CCOC3)c1 (stereo not shown) [Example 221, 3-(1,3-bis(4-chlorophenyl)-4-hydroxy-2-oxo-7-oxa-1,3-diazaspiro[4.4]nonan-4-yl)benzonitrile] | < 1 |  |
| Cc1cccc(C2(O)[C@H](C)N(c3ccc(Cl)cc3)C(=O)N2c2ccc(Cl)cc2)c1 (stereo partly shown) [Example 36-1] | < 1 |  |
| OC1(c2ccccc2)CN(c2ccc(Br)cc2)C(=S)N1c1ccc(Br)cc1 (stereo not shown) [Example 26, 1,3-bis(4-bromophenyl)-4-hydroxy-4-phenylimidazolidine-2-thione] | 50 to 100 |  |
| CC1N(c2ccc(Br)cc2)C(=O)N(c2ccc(Br)cc2)C1(O)c1cccc(Cl)c1 (stereo not shown) [Compound 73, 1,3-bis(4-bromophenyl)-4-(3-chlorophenyl)-4-hydroxy-5-methylimidazolidin-2-one] | < 1 |  |
| O=C1N(c2ccc(Cl)cc2)CC(O)(c2cccc(F)c2)N1c1ccc(Cl)cc1 (stereo not shown) [Compound 64, 1,3-bis(4-chlorophenyl)-4-(3-fluorophenyl)-4-hydroxyimidazolidin-2-one] | 1 to 10 |  |
| Cc1cccc(C2(O)[C@@H](C)N(c3ccc(Cl)cc3)C(=O)N2c2ccc(Cl)cc2)c1 (stereo partly shown) [Example 36-2] | 1 to 10 |  |
